# According to PubChem BioAssay (NCI):
#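 These data come from cells grown in 96-well plates and exposed to compound for 48 hours at five concentrations. GI50 marks 50% less growth. TGI denotes the concentration required for complete inhibition of growth.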
# Legend:
# Assay in all cases: NCI-60 cell line screen, 48 h
# CAKI-1 renal = system: CAKI-1 renal
# HOP-92 NSCLC = system: HOP-92 NSCLC
# IGROV1 ovarian = system: IGROV1 ovarian
# LOX IMVI melanoma = system: LOX IMVI melanoma
# MCF7 breast = system: MCF7 breast
# SK-MEL-2 melanoma = system: SK-MEL-2 melanoma
# SK-MEL-28 melanoma = system: SK-MEL-28 melanoma
# SR leukemia = system: SR leukemia
# UACC-62 melanoma = system: UACC-62 melanoma
# UO-31 renal = system: UO-31 renal
SMILES,GI50 (CAKI-1 renal) [µM],TGI (CAKI-1 renal) [µM],GI50 (HOP-92 NSCLC) [µM],TGI (HOP-92 NSCLC) [µM],GI50 (IGROV1 ovarian) [µM],TGI (IGROV1 ovarian) [µM],GI50 (LOX IMVI melanoma) [µM],TGI (LOX IMVI melanoma) [µM],GI50 (MCF7 breast) [µM],TGI (MCF7 breast) [µM],GI50 (SK-MEL-2 melanoma) [µM],TGI (SK-MEL-2 melanoma) [µM],GI50 (SK-MEL-28 melanoma) [µM],TGI (SK-MEL-28 melanoma) [µM],GI50 (SR leukemia) [µM],TGI (SR leukemia) [µM],GI50 (UACC-62 melanoma) [µM],TGI (UACC-62 melanoma) [µM],GI50 (UO-31 renal) [µM],TGI (UO-31 renal) [µM]
O=C(Nc1ccc(/C=C/c2ccc(NC(=O)c3cc(S(=O)(=O)O)c4cccnc4c3O)cc2S(=O)(=O)O)c(S(=O)(=O)O)c1)c1cc(S(=O)(=O)O)c2cccnc2c1O,34.3,> 75.2,28.5,89.4,18.5,> 60.2,3.07,> 28,38.5,> 100,> 53.8,> 69.7,25.5,> 62.7,0.0205,0.17,2.5,37.6,24.5,> 69
CC(=O)N1N=C2/C(=C/c3ccc(Cl)cc3)CC(C)CC2C1c1ccc(Cl)cc1 (stereo not given),44.3,> 100,19.5,54,22.5,67.2,18.1,34.6,19.2,54.2,17.4,36.7,23.7,53.8,14.6,53.8,21.1,52.2,15.1,30.5
Cc1ccc(Cl)c(Nc2ccccc2C(=O)O)c1Cl,34.6,> 100,16.2,50,32.3,93.4,18.7,44.9,34.2,> 100,26.3,76,30.5,89,25.4,78.1,16.3,32.7,19.3,45.5
Cc1cc(C(C)(C)C)cc(CNC2CCCCC2)c1O,,35.7,,29.3,,26.9,,29.5,,32.3,,34,,30.9,,53.6,,29.6,,28.2
O=C(O)c1ccc(C(=O)O)c(C(=O)Nc2ccc3c(c2)C(=O)c2ccccc2-3)c1,,> 100,,> 100,,> 100,,> 100,,> 100,,> 100,,> 100,,> 100,,> 100,,> 100
Cn1c(NCC(O)CN2CCCC2)cc(=O)n(C)c1=O (stereo not given),> 100,> 100,> 100,> 100,> 100,> 100,> 100,> 100,> 100,> 100,> 100,> 100,> 100,> 100,> 100,> 100,> 100,> 100,> 100,> 100
